For data set [1], the system named is 4T1 mouse mammary carcinoma cells. As to the kind of experiment: In-vitro cytotoxicity, MTT assay. In kind it is cell-based.
Data set [2] relates to M109 subcutaneous lung tumor. To be noted: cited from earlier work; for Antitumor efficacy: at MTD; for Tumor AUC of PX fold greater than Taxol: i.v.
The subject of another data set is human tumor cell lines. As to conditions: variety of human tumor cell lines; cited from earlier work.
Another data set deals with P-glycoprotein (P-gp). As to conditions: cited from earlier work.
The target of a further data set is tubulin (Sus scrofa, UniProt P02554). Briefly: Tubulin polymerization assay. Type of data set: biochemical.
Chain of tubulin (P02554 whole entry): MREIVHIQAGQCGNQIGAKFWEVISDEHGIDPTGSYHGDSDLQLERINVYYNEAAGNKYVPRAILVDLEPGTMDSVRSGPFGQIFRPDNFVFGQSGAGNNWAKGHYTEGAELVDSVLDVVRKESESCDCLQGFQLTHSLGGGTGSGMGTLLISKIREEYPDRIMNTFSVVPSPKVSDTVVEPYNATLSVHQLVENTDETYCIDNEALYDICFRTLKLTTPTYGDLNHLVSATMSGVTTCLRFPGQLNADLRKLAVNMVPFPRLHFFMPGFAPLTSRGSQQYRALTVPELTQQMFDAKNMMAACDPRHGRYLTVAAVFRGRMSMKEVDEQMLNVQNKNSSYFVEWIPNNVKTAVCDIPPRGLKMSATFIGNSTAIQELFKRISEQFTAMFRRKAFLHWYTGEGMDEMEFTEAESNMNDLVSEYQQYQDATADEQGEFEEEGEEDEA
Chain of tubulin (P02550 whole entry partner): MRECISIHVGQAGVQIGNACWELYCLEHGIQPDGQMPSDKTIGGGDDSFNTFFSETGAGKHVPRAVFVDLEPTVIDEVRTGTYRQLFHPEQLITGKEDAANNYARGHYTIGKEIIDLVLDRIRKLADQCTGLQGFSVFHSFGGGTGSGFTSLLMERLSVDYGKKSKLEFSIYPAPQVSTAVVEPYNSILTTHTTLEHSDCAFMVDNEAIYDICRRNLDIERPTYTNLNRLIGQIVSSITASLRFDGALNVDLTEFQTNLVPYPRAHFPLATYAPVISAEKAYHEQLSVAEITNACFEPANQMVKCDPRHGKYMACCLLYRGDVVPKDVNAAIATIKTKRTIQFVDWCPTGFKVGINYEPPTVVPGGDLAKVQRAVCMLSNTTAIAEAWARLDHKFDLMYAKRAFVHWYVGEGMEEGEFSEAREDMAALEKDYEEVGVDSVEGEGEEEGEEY
The conditions of data set [3]: rabbit model; cited from earlier work.
The test system of the next data set is HeLa cells. To be noted: cited from earlier work.
The next data set has as its system microtubule. As to conditions: cited from earlier work; for Microtubule assembly: 10 µM.
Data set [4] has as its system metastatic malignant melanoma. To be noted: Phase III, every 3-week treatment schedule; cited from earlier work.
The next data set relates to mice. To be noted: cited from earlier work.
The next data set has as its system human MCF-7 cells. As to conditions: 72 h incubation; cited from earlier work.

“Also recorded” adds a separate entry of the source. Read-outs that look alike come from different tables or passages of the source.

The text below walks through data of paper PMC3522796 (Cancer letters, 2012).

In general, IC50 refers to the concentration needed to halve the response being measured. In turn, `CC(=O)O[C@H]1C(=O)[C@@]2(C)[C@H]([C@H](OC(=O)c3ccccc3)[C@]3(O)C[C@H](OC(=O)[C@H](O)[C@@H](NC(=O)c4ccccc4)c4ccccc4)C(C)=C1C3(C)C)[C@]1(OC(C)=O)CO[C@@H]1C[C@@H]2O` [PX, Paclitaxel] showed a concentration for half-maximal inhibition (IC50) in data set [1] (Mus musculus, 4T1, 48 h) of 38 ± 1 nM. Moreover, in data set [2], the Antitumor efficacy result is recorded as “did not result in even partial tumor regression”. Besides, the Cytotoxic concentration range result with human tumor cell lines is recorded as “nM range”. For the same compound, the P-gp substrate entry in the data set with P-glycoprotein (P-gp) is “substrate of P-glycoprotein”. At tubulin (10 µM, 37°C, 3 mg/ml tubulin, standard control 25.3 ± 3.2), the “Vmax of tubulin polymerization” value turned out to be 45.0 ± 3.6 mOD/min. For the same compound, the “Effect on tubulin polymerization” value at tubulin (10 µM, compared to control) is “could stabilize microtubule proteins”.
Turning to `CCCCCCCCC=CCCCCCCCC(=O)OC(C(=O)OC1CC2(O)C(OC(=O)c3ccccc3)C3C4(OC(C)=O)COC4CC(O)C3(C)C(=O)C(OC(C)=O)C(=C1C)C2(C)C)C(NC(=O)c1ccccc1)c1ccccc1` (stereo not drawn) [2’-oleate-PX], the “Pharmacokinetics compared to PX formulated in Cremophor EL/Ethanol” value in [3] was “significantly greater AUC, higher Cmax, and lower systemic clearance”. In addition, the IC50 is 5500 nM in the data set on HeLa cells (24 h incubation, in lipid emulsions); 500 nM in the data set with HeLa cells (48 h incubation); 150 nM in the data set on HeLa cells (72 h incubation, in lipid emulsions); 100 nM in the data set with HeLa cells (96 h incubation, in lipid emulsions).
Regarding `CC/C=C\C/C=C\C/C=C\C/C=C\C/C=C\C/C=C/CCC(=O)O[C@@H](C(=O)O[C@H]1C[C@@]2(O)[C@@H](OC(=O)c3ccccc3)C3[C@](C)(C(=O)[C@H](OC(C)=O)C(=C1C)C2(C)C)[C@@H](O)C[C@H]1OC[C@@]31OC(C)=O)[C@@H](NC(=O)c1ccccc1)c1ccccc1` (stereo partly drawn) [DHA-PX, docosahexaenoic acid-PX], in the data set on microtubule, the Microtubule assembly entry is given as “not able to assemble microtubule” and the Microtubule assembly activity result is “does not have microtubule assembly activity”. Moreover, in [4], the Overall survival entry was “not superior to dacarbazine”. In [2], the Antitumor efficacy result is reported as “completely eliminated measurable tumors”. Moreover, in data set [2] (equimolar dose), the “Tumor AUC of PX fold greater than Taxol” value is 1.71 fold. In addition, the “Tumor AUC of PX fold greater than Taxol” value in data set [2] (equitoxic dose) is reported as 5.79 fold. Also, the Cytotoxic concentration range entry with human tumor cell lines is reported as “µM concentration range”. Further, the “MTD fold higher compared to Taxol” value in the data set on mice is 4.4 fold. Further, the P-gp substrate entry in the data set with P-glycoprotein (P-gp) is given as “remains a P-gp substrate”.
With “2’-behenoyl-paclitaxel [Formulation C22-PX]”, in data set [1] (4T1 cells), the “IC50 fold higher than PX” value was “about 8 fold”. Further, in data set [1] (4T1 cells, MTT, 48 h), the IC50 is 282 ± 42 nM. The “Effect on tubulin polymerization” value at tubulin (5 µM, compared to control) is reported as “no effect on tubulin polymerization”; on tubulin (10 µM, compared to control), “no effect on tubulin polymerization; also recorded: no microtubule activity”; at tubulin (20 µM, compared to control (p < 0.01)) it was “some tubulin polymerization activity”.
`CCCCCC=CCC=CCCCCCCCC(=O)OC(C(=O)OC1CC2(O)C(OC(=O)c3ccccc3)C3C4(OC(C)=O)COC4CC(O)C3(C)C(=O)C(OC(C)=O)C(=C1C)C2(C)C)C(NC(=O)c1ccccc1)c1ccccc1` (stereo not drawn) [2’-linoleic acid-PX]: the Microtubule assembly result in the data set on microtubule is recorded as “not able to assemble microtubule”.
In the case of `CCCCCCCCCCCCCCC(Br)C(=O)OC(C(=O)OC1CC2(O)C(OC(=O)c3ccccc3)C3C4(OC(C)=O)COC4CC(O)C3(C)C(=O)C(OC(C)=O)C(=C1C)C2(C)C)C(NC(=O)c1ccccc1)c1ccccc1` (stereo not drawn) [2’-α-bromohexadecanoyl-PX], in the data set on human MCF-7 cells, the “Fold less potent compared to PX” value is 70 fold.
